Laboratory results as given in patent US7186703B2, “Derivatives of branched-chain lipophilic molecules and uses thereof” (D-Pharm Ltd., priority 2000, dated 2007).
Like-named read-outs stand apart in the source and are kept apart here.

Assays:
[1] = system: Chinese hamster ovary (CHO) AA8 cell line; experiment: LDH release toxicity assay in cultured CHO AA8 cells; format: cell-based; settings: 1 hour incubation, read-out: LC50 (the source's name)
Procedure: Various DP-BFA molecules were screened in cultured Chinese hamster ovary (CHO) AA8 cell line in order to establish their toxicity. LC50 values, i.e. the concentrations causing death in 50% of cell population, were calculated from dose response curves. LC50 values of phospho-BFAs were compared to those of the corresponding branched fatty acids (=carbo-BFAs).
Lactate dehydrogenase (LDH) release was used as an assay for the integrity of the cells membrane and, thus, for estimation of toxicity. Cells (2×10^5/ml) were seeded (150 μl/well) in 96 well plates, in RPMI-1640 medium containing 10% FCS. After two days, tested DP-BFA compounds or the control compound myristic acid were added to the plates in declining concentrations ranging from 500 to 1 μg/ml. Cells were harvested after one hour. […] Other controls included, two blank wells and five wells containing cells with no additional drugs. Following centrifugation (1500 rpm, 5 min), 75 μl of the supernatant was transferred to a new plate with 45 μl of an LDH assay mix (Tox-7 kit, Sigma). After 10–20 minutes at room temperature, absorbance was measured using an Elisa Reader 490 nm.
Each experiment was performed in triplicate.

C6 glioma cell line = experiment: MTT cytotoxicity, C6 glioma; format: cell-based, rat; settings: three days, read-out: EC50 (50% reduction in cell viability)
Procedure: The cytotoxic activity of various phospho-derivatives of branched-chain fatty acids (DP-BFAs) was assayed in vitro in cell cultures that include normal and malignant cell types. The following cell systems were used: • Primary fibroblasts (human) • Normal bone marrow (BM) cells (mouse) • Primary bronchial epithelial cells (human, from Clonetics, cat. no. CC-2541) • Caco-2—colon cancer cell line (human, ATTC, HTB-37) • C6 glioma cell line (rat, ATCC, CRL-2199) • Neuro2a—neuroblastoma cell line (mouse, ATCC, CCL-131) • SKBR-3—breast cancer cell line (human, ATTC, HTB-30) • HL60—myeloid leukemia cell line (human, ATCC, CCL-240) • U937—myeloid leukemia cell line (human)
Cells were seeded in a microtiter plate in MEM containing 2 mM L-glutamine, 100 units/ml penicillin, 100 ug/ml streptomycin and 10% FCS at 37° C. The cultured cells were incubated, during their linear growth phase in the absence (control group) or presence of various DP-BFAs as indicated. The final concentrations of the tested DP-BFAs ranged from 1.5 to 200 microMolars. At the end of the incubation period, which was five days for the bone marrow cells and three days for all the other cell lines, the cytotoxic effect of the added P-BFA on the cells was estimated by using the colorimetric MTT assay. The MTT assay (Mosmann (1983) J. Immunol Methods 65: 55–63) measures mitochondrial reductase activity and serves for quantitative assessment of cellular viability. Drug concentration that causes 50% reduction in cell viability in comparison to the control group, is defined as EC50. The EC50 values of the tested DP-BFA compounds were calculated from dose response curves established for each of the different assayed cell lines.
Each EC50 value is an average of EC50 values derived from 1–5 independent experiments.

[2] = system: blood brain barrier (BBB); experiment: Duration of the effect on BBB opening in rat brain; format: in vivo, Sprague Dawley rats; settings: EC50 concentrations of the tested compounds
Excerpt: The effects of DP-BFA on Evans Blue and Fluoroscein extravasation in rat brain were examined at various time points following DP-BFA administration. Various DP-BFA compounds were infused, over a period of 30 seconds, into the external carotid artery of Sprague Dawley rats, following the procedure described above in Example 17. The tested compounds were used at their EC50 concentrations. […] Two compounds, 3,12-PC and 3,12-MEG-PC, both comprising a phosphocholine moiety, have shown D1/2 which was 4 times longer than the other tested 3,12-BFA derivatives, i.e. D1/2 of around 120 min.

[3] = system: blood tumor barrier / blood brain barrier; experiment: Unilateral administration in rats with bilateral C6 gliomas, Evans blue staining of brain sections; format: in vivo, SD rats; settings: 10 μM 3,12-DEG-HPO4Na; 40 μM 3,12-Na; 25% mannitol; unilateral infusion
Procedure: FIGS. 2A–C depict Evans blue accumulation in brain sections of rats bearing bilateral gliomas following unilateral administration of a compound as follows: 10 μM 3,12-DEG-HPO4Na (FIG. 2A), 40 μM 3,12-Na (FIG. 2B) or mannitol 25% (FIG. 2C).
Evans Blue and Fluoroscein penetration into gliomas tumors was examined following unilateral infusion into the external carotis artery of either 10 μM 3,12-DEG-HPO4Na (FIG. 2A), 40 μM 3,12-Na BFA (FIG. 2B) or 25% mannitol (FIG. 2C). The relevant compound was infused into rat brains at 9 to 12 days following inoculation of C6 glioma cells as described in Example 23.

C6 glioma tumor = experiment: Anti-tumor effect in C6 glioma-bearing rats, tumor volume and appearance (Example 28); format: in vivo, Sprague Dawley (SD) rats
Procedure: The anti-tumor effect of DP-BFA was evaluated by monitoring tumor volume and appearance in a model system of C6 glioma-bearing rats. Sprague Dawley (SD) rats were inoculated with 2.5×10^5 C6 glioma cells in 5 μl PBS as follows. Rats were mounted into a stereotactic head holder in a flat-skull position. After reflections of the periosteum, a burr hole was preformed with a 1 mm drill in the following coordinates: bregma—1.0, 3.50 mm lateral from the midline on the left side, and at a depth of 3.50 mm. The cell suspension was manually injected at a depth of 3.50 mm using a 10 μl Hamilton syringe.
The pterigo-palatina artery was legated, and the common carotid artery was clamped at the time of infusion.
Five days after the inoculation of the C6 tumor cells, the rats were anesthetized with Ketamin/xylazin (1:1) 0.1 ml/100 grams body weight, perfused with saline and fixed with 4% Formaldehyde solution. Brains were removed and cryoprotected in a sucrose solution for 48 h. The brains were then sliced in coronal section, stained with Haematoxylin-Eosine and underwent pathology evaluation.

Compound	CC50 [1] [µM]	D1/2 (duration of at least 50% opening of the BBB) [2]	Evans Blue staining of tumor and non-tumor brain (FIG. 2, in words) [3]	further results
CCCCCCCCCCCCC(CCC)C(=O)OCCOCCOP(=O)([O-])[O-].[Na+].[Na+] (stereo not shown) [3,12-DEG-PO4Na2, 2-[2′-(2″-Propyltetradecanoyloxy)-ethoxy]ethyl Disodium Phosphate]	320			EC50 (C6 glioma cell line): 38 µM
CCCCCCCCCCCCC(CCC)C(=O)OCCOP(=O)([O-])OCC[N+](C)(C)C (stereo not shown) [3,12-MEG-PC, 2-(2′-Propyltetradecanoyloxy)ethylphosphocholine]		around 120 min		
CCCCCCCCCCCCC(CCC)C(=O)[O-].[Na+] (stereo not shown) [3,12-Na, reference compound]	165		equally permeabilized tumor and non-tumor brain tissues	
CCCCCCCCCCCCC(CCC)C(=O)OCCOCCOP(=O)([O-])OCC[N+](C)(C)C (stereo not shown) [3,12-DEG-PC, 2-(2′-Propyltetradecanoyloxy)ethoxyethylphosphocholine]				EC50 (C6 glioma cell line; Rattus norvegicus, 72 h): 95 µM
2-(4′-Hexadecanoyloxy)ethoxyethyl phosphate [3,12-DEG-PO4]			only in the tumor tissue in the ipsilateral hemisphere	anti-tumor effect, invasiveness and rate of growth (in words) (C6 glioma tumor; rat, in vivo): significant anti-tumor effect; Tumor volume (C6 glioma tumor; single dose 5 to 20 μM, 72 h post inoculation, vehicle 8.1±2.2): 1.6±0.2 mm^3
CCCCCCCCCCCCC(CCC)OP(=O)([O-])OCC[N+](C)(C)C (stereo not shown) [3,12-PC, 4-Hexadecanyl phosphocholine]		around 120 min		
